According to BindingDB's records for doi:10.1016/j.bmcl.2011.04.103 (University of Strasburg, 2011):

Experiment: Inhibition of N-terminal SHH activated pathway in mouse C3H10T1/2 cells assessed as SAG-induced cell differentiation by alkaline phosphatase assay

SMILES	IC50
CC1=C2C[C@H]3[C@@H](CC=C4C[C@@H](O)CC[C@@]43C)[C@@H]2CC[C@]12O[C@@H]1C[C@H](C)CN[C@H]1[C@H]2C	600 nM
C[C@H]([C@@H]1CCCCN1)[C@H]1CC[C@H]2[C@@H]3CC=C4C[C@@H](O)CC[C@]4(C)[C@H]3CC[C@]12C	3200 nM
COc1cccc(CN(C(=O)CC(C)(C)C)[C@H]2C[C@@H](C(=O)N3CCNCC3)N(Cc3ccc4c(c3)OCO4)C2)c1 [N-((3S,5S)-1-(benzo[d][1,3]dioxol-5-ylmethyl)-5-(piperazine-1-carbonyl)pyrrolidin-3-yl)-N-(3-methoxybenzyl)-3,3-dimethylbutanamide]	300 nM
